Test results from article PMC11920646 (Frontiers in Pharmacology, 2025).
Values joined by “and” are separate entries in the source; they are usually repeats but may differ in a detail not shown here. Identical values can stand only once.

Tests used:
[1] = target: T1, human GR (Homo sapiens, UniProt P04150); experiment: GR reporter gene (transactivation) assay, CHO-Gal4/GR; format: cell-based; conditions: % of reference agonist beclomethasone
T1 construct: host or cells: CHO (DSMZ ACC-110), CHO-Gal4/GR
T1 sequence (P04150 524-758 limits assumed): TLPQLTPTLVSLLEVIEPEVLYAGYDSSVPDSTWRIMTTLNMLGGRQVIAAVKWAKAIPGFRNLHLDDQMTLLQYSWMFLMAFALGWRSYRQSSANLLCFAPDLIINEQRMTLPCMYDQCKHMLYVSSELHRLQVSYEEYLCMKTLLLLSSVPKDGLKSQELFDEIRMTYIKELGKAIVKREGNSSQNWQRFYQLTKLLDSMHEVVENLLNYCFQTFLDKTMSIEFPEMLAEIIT
Description: (§1) To create the CHO-Gal4/GR, CHO-Gal4/PR, and CHO-Gal4/MR reporter cell lines, first CHO cells were stably transfected with a GAL4-UAS-luciferase reporter construct. Then, the LBD of the GR, PR, or MR (GR Gene ID: 2908, PR Gene ID: 5241, MR Gene ID: 4306, respectively) was cloned into pIRES2-EGFP-GAL4 containing the DBD of GAL4 from pFA-AT2, and then co-transfected into the luciferase-reporter construct-containing CHO cells. These reporter cell lines express the respective nuclear hormone receptor LBD-DBD fusion proteins that control luciferase expression of a GAL4-upstream activation sequence (UAS)-luciferase reporter construct, allowing for detection of ligand- or compound-induced transactivation at the GR, PR, or MR by measuring luciferase activity.
(§2) Cryo-preserved CHO-Gal4/GR, CHO-Gal4/PR, and CHO-Gal4/MR cells were plated in medium at 7,500 cells/well in 384-well assay plates (25 μL/well), and incubated for 24 h. […] Following a 4-h incubation, cells were lysed and luminescence measured using the EMCCD camera FLIPR®Tetra (Molecular Devices, Silicon Valley, CA, United States).
(§3) Transactivation (i.e., gene activation) was expressed as a percentage of the reference agonist activity (Supplementary Material), using Genedata Screener® v15.0.5 software (Basel, Switzerland).
(§4) Transactivation was calculated according to this equation: […]

[2] = target: T2, human PR (Homo sapiens, UniProt P06401); experiment: PR reporter gene (transactivation) assay, CHO-Gal4/PR; format: cell-based; conditions: up to 10 µM
T2 construct: host or cells: CHO (DSMZ ACC-110), CHO-Gal4/PR
T2 sequence (P06401 679-913 limits assumed): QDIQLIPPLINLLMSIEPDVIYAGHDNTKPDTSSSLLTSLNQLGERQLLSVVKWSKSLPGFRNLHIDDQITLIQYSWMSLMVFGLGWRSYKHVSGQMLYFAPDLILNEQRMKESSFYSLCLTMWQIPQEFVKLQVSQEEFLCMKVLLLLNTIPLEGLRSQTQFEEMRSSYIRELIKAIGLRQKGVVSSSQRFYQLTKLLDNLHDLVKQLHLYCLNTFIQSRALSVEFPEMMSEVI
Description: as §1, §2, §3, §4

[3] = target: T3, human MR (Homo sapiens, UniProt P08235); experiment: MR reporter gene (transactivation) assay, CHO-Gal4/MR; format: cell-based
T3 construct: host or cells: CHO (DSMZ ACC-110), CHO-Gal4/MR
T3 sequence (P08235 726-964 limits assumed): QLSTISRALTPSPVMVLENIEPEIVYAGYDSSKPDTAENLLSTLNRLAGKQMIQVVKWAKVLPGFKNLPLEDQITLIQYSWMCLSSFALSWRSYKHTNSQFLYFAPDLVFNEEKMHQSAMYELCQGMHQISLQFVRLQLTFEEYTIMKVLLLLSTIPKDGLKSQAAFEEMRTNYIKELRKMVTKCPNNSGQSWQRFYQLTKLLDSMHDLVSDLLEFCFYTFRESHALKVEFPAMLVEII
Description: as §1, §2, §3, §4

[4] = tested on: LPS-induced TNF-α release in rat whole blood; experiment: Inhibition of LPS-induced TNF-α release in rat whole blood; format: cell-based; conditions: 18 h
Method: Arterial blood was collected from male Sprague-Dawley rats (180–250 g; Janvier Labs, Le Genest-Saint-Isle, France) in heparin syringes. […] Plasma was collected via centrifugation and TNF-α measured using a TNFalpha Kit (PerkinElmer, Waltham, MA, United States), according to manufacturers’ instructions, and a microplate reader (EnVision Multilabel Reader®, PerkinElmer; Supplementary Material). The IC50 values for inhibition of TNF-α release were calculated by fitting concentration response curves to a four parameter nonlinear regression model using ActivityBase (XLfit® software; ID Business Solutions Ltd.). […] In addition, IC50,free values were determined by correcting the IC50 values for plasma protein binding (PPB); see the Supplementary Material for the calculation.
The immuno-assay-buffer provided in the kit was diluted 1:10 in water and the mouse TNF-α analyte standard was diluted in rat plasma (30,000–4 pg/mL). […] After a 30-min incubation at room temperature, the plates were read using an EnVision Multilabel Reader® (PerkinElmer) equipped with the ALPHA option using the AlphaScreen standard settings. […]

[5] = tested on: LPS-induced IFN-γ release in human whole blood; experiment: Inhibition of LPS-induced IFN-γ release in human whole blood; format: cell-based; conditions: 24 h
[6] = tested on: tyrosine aminotransferase (TAT) activity in HepG2 cells; experiment: Induction of TAT enzyme activity in HepG2 cells; format: cell-based, human; conditions: for EC50: 24 h; for Efficacy, induction of TAT enzyme activity: relative to dexamethasone, GRM-01 maximum at 10 µM
Method: TAT is a key enzyme in gluconeogenesis under the control of glucocorticoids and their interaction with the GR ([Panin and Usynin, 2008]), where induction of TAT expression is mediated through GR transactivation.
HepG2 cells were seeded at 20,000 cells/well in an Eagles’ minimal essential medium (EMEM)-based cell culture medium (Supplementary Material) in 96-well plates and incubated for 24 h in standard conditions. […] Medium was removed, cells washed with 50 μL of phosphate buffered saline (PBS) solution and lysis buffer added (45 µL/well) for a 20-min incubation in agitation at 1,200 rpm at room temperature. Detection buffer (150 µL/well) was added for a 2-h incubation after which the reaction was stopped, followed by a 30-min incubation, all at 37°C. This reaction solution was transferred to an absorbance detection plate (5 µL/well) to measure TAT expression (Envision plate reader, PerkinElmer).
The HepG2 cell culture medium was comprised of 500 mL of Eagles’ minimal essential medium (EMEM) without L-glutamine, 5 mL of 100X penicillin/streptomycin, 5 mL of Ultraglutamine I Supplement 200 mM, 5 mL of non-essential amino acids (NEAA) 100X (all from Lonza), and 50 mL of FBS (Sigma).
% activation= compound -minmax- min ×100
where min = TAT expression in medium only, max = TAT expression after stimulation with dexamethasone

[7] = tested on: SCW-induced ankle inflammation in female Lewis rats; experiment: Rat streptococcal cell wall (SCW) model of joint inflammation; format: in vivo
Method: Female Lewis rats (150–200 g, Charles River, United Kingdom) were used for the model of joint inflammation (see Supplementary Material for animal care), with in vivo efficacy assays conducted at the Saretius Ltd., Science and Technology Centre (Reading, United Kingdom). Monoarticular joint inflammation was induced on Day −21 by intra-articular injection of 10 μg of streptococcal cell wall (SCW) extract (Lee Laboratories, BD Scientific, Franklin Lakes, NJ, United States) into the left hind ankle joint. […] Treatments, including control, were administered orally once daily on Days −1 to 6 of the study. Additionally, on Day 0, each rat received an intravenous (IV) dose of 100 μg SCW extract 2 h after oral dosing. IV injections were given after rats had spent up to 10 min in a 40°C hot box (Thermacage MK2, Datesand Ltd., Manchester, United Kingdom).
Rat ankle diameters were measured using digital calipers (Mitutoyo, United Kingdom, Model: CDS6CX), mechanical allodynia tested using von Frey hairs, and rats weighed, per the schedule in Supplementary Table S2. […] On Day 6, rats were euthanized by a schedule 1 method (carbon dioxide) and terminal blood samples collected by cardiac puncture. After centrifugation to obtain plasma supernatant (10,000 rpm, 3 min), plasma was stored at −20°C until analysis. […] Glucose test strips (Roche Accu-Check with Aviva blood glucose system meter) were used to measure blood glucose levels at the time blood was drawn. All data were analyzed with Statistica v11 software (StatSoft Inc., Tulsa, OK, United States), using the Kolmogorov-Smirnov test to assess normality of distribution (see Supplementary Material for further detail), and to determine total area under the concentration-time curve (AUC) using the trapezoidal method. […] The effect of each treatment on ankle inflammation was determined by the reduction in ipsilateral ankle AUC versus control.
Data that was not normally distributed were analyzed with Kruskal-Wallis analysis of variance (ANOVA) followed by Dunn’s multiple comparisons tests. Normally distributed data were analyzed with repeated measures ANOVAs as appropriate, one-way ANOVAs and Dunnett’s post hoc tests.

[8] = tested on: IFN-γ release in human whole blood; design: method as in Hu et al., 2011; conditions: at concentrations each of 100–1000 nM ref Hu et al., 2011; cited from earlier work
[9] = humans ref Ferry et al., 1988; cited from earlier work

- GR transactivation, mean activation (efficacy) [1]: 80.5% and 80.5 ± 2.2%
- PR transactivation [2]: no detectable transactivation
- EC50 ([3]; 4-h incubation): 11.8 ± 3.2 nM
- MR transactivation, mean activation ([3]; % of reference agonist fludrocortisone): 66.4 ± 4.7%
- IC50 [4]: 8.1 ± 2.1 nM
- IC50 [5]: 13.4 ± 7.95 nM
- EC50 [6]: 284 ± 113 nM
- EC50 ([6]; Homo sapiens, HepG2, 24 h): 283 nM
- change in blood glucose AUC2.5–24h versus vehicle ([7]; Day 5, GRM-01 any dose 0.01–1 mg/kg/day, prednisolone 30 mg/kg/day): statistically significant increase
SMILES: C[C@]12C=CC(=O)C=C1CC[C@@H]1[C@@H]2[C@@H](O)C[C@@]2(C)[C@H]1CC[C@]2(O)C(=O)CO [Prednisolone]
- Inhibition of LPS-induced TNF-α release [4]: 99 ± 3%
- Inhibition of LPS-induced IFN-γ release [5]: 99.3 ± 2.8%
- Inhibition of LPS-induced IFN-γ release ([5]; listed as prednisolone): 99%
- Efficacy, induction of TAT enzyme activity [6]: 92.4 ± 5.3%
- Efficacy, induction of TAT enzyme activity ([6]; listed as prednisolone): 92.4% and 92%
- blood glucose at time points post dose versus vehicle ([7]; Day 5, GRM-01 at 2.5 h, all doses except 0.03 mg/kg/day, not dose dependent, prednisolone 30 mg/kg/day at 2.5, 4 and 6 h): significantly higher blood glucose levels
- effect on plasma corticosterone levels vs vehicle ([7]; Day 6, GRM-01 significant at 0.3 mg/kg/day (p < 0.01), prednisolone 30 mg/kg/day (p < 0.01)): reduced plasma corticosterone levels
- antinociceptive effect (ipsilateral paw withdrawal threshold vs vehicle) ([7]; GRM-01 0.1, 0.3, 1 mg/kg/day, prednisolone 30 mg/kg/day): demonstrated an antinociceptive effect
- ED50 ([7]; rat SCW model, separate and independent study, doses 0.003–30 mg/kg, read-out: ED50, change in AUC of ankle diameter): 2.49 mg/kg
- inhibition of IFN-γ release in human whole blood [8]: 85–100%
- t½ [9]: ~2.5 h
